These results are taken from patent US20240173432A1, “Compositions and Methods for Treatment of Myotonic Dystrophy Type 1 with CRISPR/SluCas9” (Vertex Pharmaceuticals Incorporated, priority 2021, published 2024).

The first data set has as its system CTG repeat in the 3′ UTR of human DMPK gene. Nature of the data set: Dual-cut screening: CTG repeat excision efficiency by loss-of-signal ddPCR. It is filed as cell-based. Conditions: sgRNA pair; primary DM1 patient myoblasts; 3 μM DNA-PKi Compound 6 for 48 hours. Here is the method:
RNPs were assembled with recombinant SluCas9 protein and chemically modified sgRNAs at a ratio of 1:3 (protein:sgRNA). For SINGLE-cut screening, RNP complexes were assembled with 30 pmol of SluCas9 and 90 pmol of sgRNA in P5 Primary Cell Nucleofector Solution (Lonza). After incubation at room temperature for 20 minutes, 10 μL of RNP complex were mixed with two hundred thousand of primary myoblasts resuspended in 10 μL of P5 Nucleofector Solution. For DOUBLE-cut screening, RNP complexes were first assembled for individual sgRNAs with 20 pmol of SluCas9 protein and 60 pmol of sgRNAs in 5 μL of P5 Nucleofector Solution. After incubation at room temperature for 20 minutes, the two RNP complexes (one for upstream sgRNA and one for downstream sgRNA) were mixed at 1:1 ratio and then further mixed with two hundred thousand of primary myoblasts resuspended in 10 μL of P5 Nucleofector Solution.
The Nucleofector 96-well Shuttle System (Lonza) was used to deliver the SluCa9/sgRNA RNPs into primary DM1 patient myoblasts using the nucleofection program CM138. Following nucleofection, myoblasts from each well of nucleofection shuttle were split into six wells of the 96-well cell culture plate (Greiner, 655090) coated with matrigel. The first three wells were treated with DMSO for 48 hrs before changing to fresh myoblast growth medium, and the other three wells were treated with 3 μM of DNA-PKi Compound 6 for 48 hrs before changing to fresh myoblast growth medium. 72 hrs post nucleofection, two wells of DMSO-treated myoblasts and two wells of DNA-PKi-treated myoblasts from each nucleofection were harvested for genomic DNA extraction using the Kingfisher Flex purification system (Thermal Fisher), whereas one well of DMSO-treated myoblasts and one well of DNA-PKi-treated myoblasts were stained for RNA foci by FISH staining.
The primers and probes of ddPCR are designed using the online primer design software Primer3Plus (http://www.bioinformatics.nl/cgi-bin/primer3plus/primer3plus.cgi). In some embodiments, two target primers/probe sets were used to detect CTG repeat excision, and a reference primers/probe set were used to amplify a region located in Exon 1 of human DMPK gene and to serve as a reference control for the target sets. The 24 μL of ddPCR reaction consists of 12 μL of Supermix for Probes (no dUTP) (Bio-Rad Laboratories), 1 μL of Reference primers mix (21.6 μM), 1 μL of Reference probe (6 μM), 1 μL of Target primers mix (21.6 μM), 1 μL of Target probe (6 μM), and 8 μL of sample genomic DNA. Droplets were generated using probe oil with the QX200 Droplet Generator (Bio-Rad Laboratories). Droplets were transferred to a 96-well PCR plate, sealed and cycled in a C1000 deep well Thermocycler (Bio-Rad Laboratories) under the following cycling protocol: 1 cycle at 95° C. for 10 min; 40 cycles of 94° C. for 30 see, and 58° C. for 1 min; 1 cycle at 98° C. for 10 min (for enzyme inactivation). The cycled plate was then transferred and read in the FAM and HEX channels using the Bio-Rad QX200 Droplet Reader (Bio-Rad Laboratories). ddPCR analysis is performed with the Bio-Rad QuantaSoft Pro Software.
To assess the efficiency of SluCas9 sgRNA pairs for inducing CTG repeat excision, Dual-cut screening was performed in which individual SluCas9 sgRNAs and recombinant SluCas9 protein were assembled into ribonucleoprotein (RNP) and delivered into primary DM1 patient myoblasts. Nucleofected myoblasts were treated with either DMSO (vehicle) or 3 μM of DNA-dependent Protein Kinase Inhibitor (DNA-PKi) Compound 6 for 48 hours. 72 hours post-nucleofection, myoblasts were subjected to either genomic DNA isolation or RNA foci staining by fluorescence in situ hybridization (FISH).
CRISPR repeat excision efficiency was assessed for each of the 88 pairs (FIG. 8A-B and Table 5). CTG repeat excision efficiency percentages are shown for vehicle (DMSO; white bars) and with DNA-PKi (black bars) (FIG. 8B and Table 5).
On to “SluU08 + SluD32 (guide 1 GCCCCGTTGGAAGACTGAGTGC; guide 2 CTTGTGCATGACGCCCTGCTCT; guide RNA; listed as DNA, chemistry not fully specified)”, for which the “Excision efficiency (by ddPCR)” value is 73.0215.

For “SluU08 + SluD34 (guide 1 GCCCCGTTGGAAGACTGAGTGC; guide 2 CGCGCCAGACGCTCCCCAGAGC; guide RNA; listed as DNA, chemistry not fully specified)”, the “Excision efficiency (by ddPCR)” value was found to be 69.47.

Turning to “SluU08 + SluD48 (guide 1 GCCCCGTTGGAAGACTGAGTGC; guide 2 GAGAGCAGCGCAAGTGAGGAGG; guide RNA; listed as DNA, chemistry not fully specified)”, the “Excision efficiency (by ddPCR)” value was 55.92.

Take “SluU08 + SluD56 (guide 1 GCCCCGTTGGAAGACTGAGTGC; guide 2 CCAGCCGGCTCCGCCCGCTTCG; guide RNA; listed as DNA, chemistry not fully specified)”: the “Excision efficiency (by ddPCR)” value is 52.26.

For “SluU08 + SluD68 (guide 1 GCCCCGTTGGAAGACTGAGTGC; guide 2 CCTGTAGCCTGTCAGCGAGTCG; guide RNA; listed as DNA, chemistry not fully specified)”, the “Excision efficiency (by ddPCR)” value amounted to 62.56.

As to “SluU08 + SluD73 (guide 1 GCCCCGTTGGAAGACTGAGTGC; guide 2 CCAAAACGTGGATTGGGGTTGT; guide RNA; listed as DNA, chemistry not fully specified)”, the “Excision efficiency (by ddPCR)” value is 67.61.

As for “SluU08 + SluD83 (guide 1 GCCCCGTTGGAAGACTGAGTGC; guide 2 GTGGGGACAGACAATAAATACC; guide RNA; listed as DNA, chemistry not fully specified)”, the “Excision efficiency (by ddPCR)” value is reported as 70.46.

Take “SluU08 + SluD100 (guide 1 GCCCCGTTGGAAGACTGAGTGC; guide 2 GTCCAGAGCTTTGGGCAGATGG; guide RNA; listed as DNA, chemistry not fully specified)”: the “Excision efficiency (by ddPCR)” value came to 66.38.

Still in this data set, the particulars now being: sgRNA pair; primary DM1 patient myoblasts; vehicle (DMSO).
Take “SluU08 + SluD32 (guide 1 GCCCCGTTGGAAGACTGAGTGC; guide 2 CTTGTGCATGACGCCCTGCTCT; guide RNA; listed as DNA, chemistry not fully specified)”: the “Excision efficiency by ddPCR (Vehicle)” value is listed as 50.87.

As to “SluU08 + SluD34 (guide 1 GCCCCGTTGGAAGACTGAGTGC; guide 2 CGCGCCAGACGCTCCCCAGAGC; guide RNA; listed as DNA, chemistry not fully specified)”, the “Excision efficiency by ddPCR (Vehicle)” value amounted to 58.11.

Turning to “SluU08 + SluD48 (guide 1 GCCCCGTTGGAAGACTGAGTGC; guide 2 GAGAGCAGCGCAAGTGAGGAGG; guide RNA; listed as DNA, chemistry not fully specified)”, the “Excision efficiency by ddPCR (Vehicle)” value amounted to 42.14.

For “SluU08 + SluD56 (guide 1 GCCCCGTTGGAAGACTGAGTGC; guide 2 CCAGCCGGCTCCGCCCGCTTCG; guide RNA; listed as DNA, chemistry not fully specified)”, the “Excision efficiency by ddPCR (Vehicle)” value is listed as 32.16.

As to “SluU08 + SluD68 (guide 1 GCCCCGTTGGAAGACTGAGTGC; guide 2 CCTGTAGCCTGTCAGCGAGTCG; guide RNA; listed as DNA, chemistry not fully specified)”, the “Excision efficiency by ddPCR (Vehicle)” value is 42.63.

In the case of “SluU08 + SluD73 (guide 1 GCCCCGTTGGAAGACTGAGTGC; guide 2 CCAAAACGTGGATTGGGGTTGT; guide RNA; listed as DNA, chemistry not fully specified)”, the “Excision efficiency by ddPCR (Vehicle)” value is given as 50.12.

For “SluU08 + SluD83 (guide 1 GCCCCGTTGGAAGACTGAGTGC; guide 2 GTGGGGACAGACAATAAATACC; guide RNA; listed as DNA, chemistry not fully specified)”, the “Excision efficiency by ddPCR (Vehicle)” value amounted to 45.64.

On to “SluU08 + SluD100 (guide 1 GCCCCGTTGGAAGACTGAGTGC; guide 2 GTCCAGAGCTTTGGGCAGATGG; guide RNA; listed as DNA, chemistry not fully specified)”, for which the “Excision efficiency by ddPCR (Vehicle)” value is given as 41.65.

For another data set, the system named is CUG foci in primary DM1 patient myoblasts. Description: Dual-cut screening: FISH staining of CUG RNA foci. To be noted: sgRNA pair; primary DM1 patient myoblasts; 3 μM DNA-PKi Compound 6 for 48 hours. The class given is cell-based, human. The gist of the method:
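SluCas9 RNPs (protein:sgRNA 1:3; 20 pmol SluCas9 + 60 pmol sgRNA per guide, paired 1:1) nucleofected into primary DM1 patient myoblasts, then DMSO or 3 μM DNA-PKi Compound 6 for 48 h. At 72 h post-nucleofection cells fixed, FISH-stained with Cy3-PNA(CAG)5 probe plus anti-MBNL1 and Hoechst; % CUG foci-free nuclei by high-content confocal imaging.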
For the substance “SluU08 + SluD32 (guide 1 GCCCCGTTGGAAGACTGAGTGC; guide 2 CTTGTGCATGACGCCCTGCTCT; guide RNA; listed as DNA, chemistry not fully specified)”, the “% of CUG foci free nuclei (DNA-PKi)” value is given as 90.91%.

For “SluU08 + SluD34 (guide 1 GCCCCGTTGGAAGACTGAGTGC; guide 2 CGCGCCAGACGCTCCCCAGAGC; guide RNA; listed as DNA, chemistry not fully specified)”, the “% of CUG foci free nuclei (DNA-PKi)” value is 91.15%.

Take “SluU08 + SluD48 (guide 1 GCCCCGTTGGAAGACTGAGTGC; guide 2 GAGAGCAGCGCAAGTGAGGAGG; guide RNA; listed as DNA, chemistry not fully specified)”: the “% of CUG foci free nuclei (DNA-PKi)” value is given as 87.63%.

“SluU08 + SluD56 (guide 1 GCCCCGTTGGAAGACTGAGTGC; guide 2 CCAGCCGGCTCCGCCCGCTTCG; guide RNA; listed as DNA, chemistry not fully specified)”: the “% of CUG foci free nuclei (DNA-PKi)” value was 83.74%.

Consider “SluU08 + SluD68 (guide 1 GCCCCGTTGGAAGACTGAGTGC; guide 2 CCTGTAGCCTGTCAGCGAGTCG; guide RNA; listed as DNA, chemistry not fully specified)”, for which the “% of CUG foci free nuclei (DNA-PKi)” value is on record as 88.24%.

On to “SluU08 + SluD73 (guide 1 GCCCCGTTGGAAGACTGAGTGC; guide 2 CCAAAACGTGGATTGGGGTTGT; guide RNA; listed as DNA, chemistry not fully specified)”, for which the “% of CUG foci free nuclei (DNA-PKi)” value stood at 89.94%.

For “SluU08 + SluD83 (guide 1 GCCCCGTTGGAAGACTGAGTGC; guide 2 GTGGGGACAGACAATAAATACC; guide RNA; listed as DNA, chemistry not fully specified)”, the “% of CUG foci free nuclei (DNA-PKi)” value came out at 90.38%.

Turning to “SluU08 + SluD100 (guide 1 GCCCCGTTGGAAGACTGAGTGC; guide 2 GTCCAGAGCTTTGGGCAGATGG; guide RNA; listed as DNA, chemistry not fully specified)”, the “% of CUG foci free nuclei (DNA-PKi)” value is reported as 88.59%.

The same data set, now with this note: sgRNA pair; primary DM1 patient myoblasts; vehicle (DMSO).
“SluU08 + SluD32 (guide 1 GCCCCGTTGGAAGACTGAGTGC; guide 2 CTTGTGCATGACGCCCTGCTCT; guide RNA; listed as DNA, chemistry not fully specified)”: the “% of CUG foci free nuclei (Vehicle)” value stood at 74.1%.

As to “SluU08 + SluD34 (guide 1 GCCCCGTTGGAAGACTGAGTGC; guide 2 CGCGCCAGACGCTCCCCAGAGC; guide RNA; listed as DNA, chemistry not fully specified)”, the “% of CUG foci free nuclei (Vehicle)” value is given as 77.93%.

For the substance “SluU08 + SluD48 (guide 1 GCCCCGTTGGAAGACTGAGTGC; guide 2 GAGAGCAGCGCAAGTGAGGAGG; guide RNA; listed as DNA, chemistry not fully specified)”, the “% of CUG foci free nuclei (Vehicle)” value was 64.93%.

Consider “SluU08 + SluD56 (guide 1 GCCCCGTTGGAAGACTGAGTGC; guide 2 CCAGCCGGCTCCGCCCGCTTCG; guide RNA; listed as DNA, chemistry not fully specified)”, for which the “% of CUG foci free nuclei (Vehicle)” value was 46.21%.

As to “SluU08 + SluD68 (guide 1 GCCCCGTTGGAAGACTGAGTGC; guide 2 CCTGTAGCCTGTCAGCGAGTCG; guide RNA; listed as DNA, chemistry not fully specified)”, the “% of CUG foci free nuclei (Vehicle)” value is 65.1%.

For the substance “SluU08 + SluD73 (guide 1 GCCCCGTTGGAAGACTGAGTGC; guide 2 CCAAAACGTGGATTGGGGTTGT; guide RNA; listed as DNA, chemistry not fully specified)”, the “% of CUG foci free nuclei (Vehicle)” value is recorded as 65.42%.

For “SluU08 + SluD83 (guide 1 GCCCCGTTGGAAGACTGAGTGC; guide 2 GTGGGGACAGACAATAAATACC; guide RNA; listed as DNA, chemistry not fully specified)”, the “% of CUG foci free nuclei (Vehicle)” value came out at 68.14%.

Turning to “SluU08 + SluD100 (guide 1 GCCCCGTTGGAAGACTGAGTGC; guide 2 GTCCAGAGCTTTGGGCAGATGG; guide RNA; listed as DNA, chemistry not fully specified)”, the “% of CUG foci free nuclei (Vehicle)” value came out at 66.31%.
